From patent US20250171467A1, “FUSED PYRAZOLE AMIDE ANALOGS AS GLUCOSYLCERAMIDE SYNTHASE INHIBITORS” (Merck Sharp & Dohme LLC, priority 2022, published 2025)

Biological target: glucosylceramide synthase (GCS) (Homo sapiens (Human), UniProt Q16739)
Experiment: UDP-Glo glucosylceramide synthase biochemical assay
Settings: endogenous GCS in Golgi preparations from human A375 malignant melanoma skin cells; C6 ceramide and UDP-glucose substrates; 20 h incubation at room temperature; UDP detected by luminescence
Text: A UDP-Glo™ glucosylceramide synthase biochemical assay was utilized to evaluate the effect of test compounds on the activity of endogenous levels of GCS enzyme contained within Golgi preparations isolated from human A375 malignant melanoma skin cells. The UDP-Glo™ glucosylceramide synthase assay uses UDP-Glucose as a nucleotide-glycosyl donor and ceramide as substrate acceptor molecules. In the reaction, glucosylceramide synthase (GCS) transfers glucose from UDP-Glucose to ceramide. Glucosylceramide and UDP are released as products.
Using Promega's UDP-Glo™ Glycosyltransferase assay kit (Promega Corporation, Madison, WI, USA (Promega)), GCS activity was indirectly measured by detecting the amount of UDP produced. An aliquot of GCS enzyme (1.5 μg crude golgi preparation, total protein) and titrated test compound were aliquoted to each well and incubated for 30 minutes at room temperature. […] An equivalent volume of substrate mixture was then added to each well. Following a 20 h incubation at room temperature to allow for GCS turnover of substrate, an equal volume of UDP detection reagent (Promega) was added to each well and incubated for an additional 75 minutes at room temperature to simultaneously convert the accumulated UDP product into ATP and generate light in a luciferase reaction. The generated light was detected using a luminometer. […] luminescence values (RLUs) were normalized to mean “min” and “max” effects, as determined on each plate. […] Values for % Emax and EC50 were determined by best-fitting the normalized data to a curve in Activity Base along a four-parameter logistic nonlinear regression (4PL) model (based on the Levenberg-Marquardt algorithm and defined by the equation below): […]
where: n is 4PMin (bottom of the curve); m is 4PMax (top of the curve); i is IP (inflection point of curve); and p is slope. See Levenberg, K., “A Method for the Solution of Certain Problems in Least Squares”, Quart. Appl. Math. 2, (1944), pp 164-168 and Marquardt, D., “An Algorithm for Least Squares Estimation on Nonlinear Parameters”, SIAM J. Appl. Math. 11, (1963) pp 431-441.

glucosylceramide synthase (GCS), sequence (Q16739 whole entry): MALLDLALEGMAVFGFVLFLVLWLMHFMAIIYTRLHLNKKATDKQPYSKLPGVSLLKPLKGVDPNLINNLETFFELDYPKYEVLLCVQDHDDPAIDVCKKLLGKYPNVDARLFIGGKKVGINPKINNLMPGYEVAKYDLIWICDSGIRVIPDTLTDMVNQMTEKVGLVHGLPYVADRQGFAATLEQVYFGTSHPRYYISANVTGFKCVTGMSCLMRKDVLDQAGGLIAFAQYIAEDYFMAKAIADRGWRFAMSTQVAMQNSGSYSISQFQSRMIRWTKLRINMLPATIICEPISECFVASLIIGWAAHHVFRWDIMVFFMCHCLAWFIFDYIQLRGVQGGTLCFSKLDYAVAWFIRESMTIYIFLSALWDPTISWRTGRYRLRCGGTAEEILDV

`COc1ccc(-n2nc(C(=O)N3CCCNCC3C)c3c2CCOC3)cc1` (racemic) [Compound 7, Racemic-[1-(4-methoxyphenyl)-1,4,6,7-tetrahydropyrano[4,3-c]pyrazol-3-yl]-(2-methyl-1,4-diazepan-1-yl)methanone] and `COc1ccc(-n2nc(C(=O)N3CCCNCC3)c3c2CCOC3)cc1` [Compound 6, 1,4-diazepan-1-yl-[1-(4-methoxyphenyl)-1,4,6,7-tetrahydropyrano[4,3-c]pyrazol-3-yl]methanone] are within 1.5-fold of each other in EC50: 250 nM for the first, 360 nM for the second.

Going from `COc1ccc(-n2nc(C(=O)N3CCN4CCC3C4)c3c2CCOC3)cc1` (racemic) [Compound 10, Racemic-1,4-diazabicyclo[3.2.1]octan-4-yl-[1-(4-methoxyphenyl)-1,4,6,7-tetrahydropyrano[4,3-c]pyrazol-3-yl]methanone] to `COc1ccc(-n2nc(C(=O)N3CCN4CCC3C(F)(F)C4)c3c2CCOC3)cc1` (single isomer, unassigned) [Compound 2, [(5˜{R or S})-6,6-difluoro-1,4-diazabicyclo[3.2.2]nonan-4-yl]-[1-(4-methoxyphenyl)-1,4,6,7-tetrahydropyrano[4,3-c]pyrazol-3-yl]methanone], the EC50 rises from 180 nM to 7700 nM (43-fold).

First: COc1ccc(-n2nc(C(=O)N3CCC4CCC(C3)N4)c3c2CCOC3)cc1 (racemic) [Compound 12, Racemic-3,9-diazabicyclo[4.2.1]nonan-3-yl-[1-(4-methoxyphenyl)-1,4,6,7-tetrahydropyrano[4,3-c]pyrazol-3-yl]methanone]
Second: COc1ccc(-n2nc(C(=O)N3CCNCC(F)C3)c3c2CCOC3)cc1 (racemic) [Compound 13, Racemic-(6-fluoro-1,4-diazepan-1-yl)-[1-(4-methoxyphenyl)-1,4,6,7-tetrahydropyrano[4,3-c]pyrazol-3-yl]methanone]
The EC50 of the first is 3-fold lower: 840 nM for the first, 2500 nM for the second. The first is the more potent here.

Compared with `COc1ccc(-n2nc(C(=O)N3CCN4CCC3C(F)(F)C4)c3c2CCOC3)cc1` (single isomer, unassigned) [Compound 3, [(5˜{S or R})-6,6-difluoro-1,4-diazabicyclo[3.2.2]nonan-4-yl]-[1-(4-methoxyphenyl)-1,4,6,7-tetrahydropyrano[4,3-c]pyrazol-3-yl]methanone], `O=C(c1nn(-c2ccc(OC(F)F)cc2)c2c1COCC2)N1CCN2CCC1CC2` [Compound 5, 1,4-diazabicyclo[3.2.2]nonan-4-yl-[1-[4-(difluoromethoxy)phenyl]-1,4,6,7-tetrahydropyrano[4,3-c]pyrazol-3-yl]methanone] is 48-fold lower in EC50: 1400 nM for the first, 29 nM for the second. The second is the more potent here.

Compared with `COc1ccc(-n2nc(C(=O)N3CCN4CCC3C(F)(F)C4)c3c2CCC3)cc1C(F)(F)F` (single isomer, unassigned) [Compound 22, [R or S]-(6,6-difluoro-1,4-diazabicyclo[3.2.2]nonan-4-yl)-[1-[4-methoxy-3-(trifluoromethyl)phenyl]-1,4,5,6-tetrahydrocyclopenta[c]pyrazol-3-yl]methanone], `COc1ccc(-n2nc(C(=O)N3CC[N@@]4CCC3C(F)(F)C4)c3c2CCC3)cc1C(F)(F)F` (single isomer, unassigned) [Compound 23, [S or R]-(6,6-difluoro-1,4-diazabicyclo[3.2.2]nonan-4-yl)-[1-[4-methoxy-3-(trifluoromethyl)phenyl]-1,4,5,6-tetrahydrocyclopenta[c]pyrazol-3-yl]methanone] is 4.1-fold higher in EC50: 16 nM for the first, 66 nM for the second. The first is the more potent here.

`COc1ccc(-n2nc(C(=O)N3CCCN(C)CC3)c3c2CCOC3)cc1` [Compound 4, [1-(4-methoxyphenyl)-1,4,6,7-tetrahydropyrano[4,3-c]pyrazol-3-yl]-(4-methyl-1,4-diazepan-1-yl)methanone] and `COc1ccc(-n2nc(C(=O)N3CCCN(C)CC3)c3c2CCOC3)cc1F` [Compound 15, [1-(3-fluoro-4-methoxyphenyl)-1,4,6,7-tetrahydropyrano[4,3-c]pyrazol-3-yl]-(4-methyl-1,4-diazepan-1-yl)methanone] are within 1.5-fold of each other in EC50: 940 nM for the first, 730 nM for the second.

First: COc1ccc(-n2nc(C(=O)N3CCNCC4(CC4)C3)c3c2CCOC3)cc1 [Compound 8, 5,8-diazaspiro[2.6]nonan-8-yl-[1-(4-methoxyphenyl)-1,4,6,7-tetrahydropyrano[4,3-c]pyrazol-3-yl]methanone]
Second: COc1ccc(-n2nc(C(=O)N3CCN4CCC3CC4)c3c2CCC3)cc1 [Compound 17, 1,4-diazabicyclo[3.2.2]nonan-4-yl-[1-(4-methoxyphenyl)-1,4,5,6-tetrahydrocyclopenta[c]pyrazol-3-yl]methanone]
The EC50 of the first is 710-fold higher: 1200 nM for the first, 1.7 nM for the second. The second is the more potent here.

Going from `COc1ccc(-n2nc(C(=O)N3CCCN(C)CC3)c3c2CCOC3)cc1C(F)(F)F` [Compound 14, [1-[4-methoxy-3-(trifluoromethyl)phenyl]-1,4,6,7-tetrahydropyrano[4,3-c]pyrazol-3-yl]-(4-methyl-1,4-diazepan-1-yl)methanone] to `COc1ccc(-n2nc(C(=O)N3CCN4CCC3CC4)c3c2CCC3)cc1C(F)(F)F` [Compound 21, 1,4-diazabicyclo[3.2.2]nonan-4-yl-[1-[4-methoxy-3-(trifluoromethyl)phenyl]-1,4,5,6-tetrahydrocyclopenta[c]pyrazol-3-yl]methanone], the EC50 falls from 320 nM to 0.1 nM (3200-fold).

First: COc1ccc(-n2nc(C(=O)N3CCN4CCC3CC4)c3c2CCOC3)cc1Cl [Compound 16, [1-(3-chloro-4-methoxyphenyl)-1,4,6,7-tetrahydropyrano[4,3-c]pyrazol-3-yl]-(1,4-diazabicyclo[3.2.2]nonan-4-yl)methanone]
Second: COc1ccc(-n2nc(C(=O)N3CCN4CCC3CC4)c3c2CCC3)cc1Cl [Compound 19, [1-(3-chloro-4-methoxyphenyl)-1,4,5,6-tetrahydrocyclopenta[c]pyrazol-3-yl]-(1,4-diazabicyclo[3.2.2]nonan-4-yl)methanone]
The EC50 of the first is 7.3-fold higher: 2.2 nM for the first, 0.3 nM for the second.

First: COc1ccc(-n2nc(C(=O)N3CCN4CCC3CC4)c3c2CCC3)cc1F [Compound 18, 1,4-diazabicyclo[3.2.2]nonan-4-yl-[1-(3-fluoro-4-methoxyphenyl)-1,4,5,6-tetrahydrocyclopenta[c]pyrazol-3-yl]methanone]
Second: COc1ccc(-n2nc(C(=O)N3CCN4CCC3CC4)c3c2CCC3)cc1C [Compound 20, 1,4-diazabicyclo[3.2.2]nonan-4-yl-[1-(4-methoxy-3-methylphenyl)-1,4,5,6-tetrahydrocyclopenta[c]pyrazol-3-yl]methanone]
The EC50 of the first is 2.2-fold higher: 0.9 nM for the first, 0.4 nM for the second. The second is the more potent here.

Compared with `O=C(c1nn(-c2ccc(Cl)c(Cl)c2)c2c1CCC2)N1CCN2CCC1CC2` [Compound 24, 1,4-diazabicyclo[3.2.2]nonan-4-yl-[1-(3,4-dichlorophenyl)-1,4,5,6-tetrahydrocyclopenta[c]pyrazol-3-yl]methanone], `O=C(c1nn(-c2ccc(F)c(Cl)c2)c2c1CCC2)N1CCN2CCC1CC2` [Compound 25, [1-(3-chloro-4-fluorophenyl)-1,4,5,6-tetrahydrocyclopenta[c]pyrazol-3-yl]-(1,4-diazabicyclo[3.2.2]nonan-4-yl)methanone] is 13-fold higher in EC50: 0.1 nM for the first, 1.3 nM for the second. The first is the more potent here.

Compared with `O=C(c1nn(-c2cccc(Cl)c2)c2c1CCC2)N1CCN2CCC1CC2` [Compound 26, [1-(3-chlorophenyl)-1,4,5,6-tetrahydrocyclopenta[c]pyrazol-3-yl]-(1,4-diazabicyclo[3.2.2]nonan-4-yl)methanone], `Cc1ccc(-n2nc(C(=O)N3CCN4CCC3CC4)c3c2CCC3)cc1Cl` [Compound 27, [1-(3-chloro-4-methylphenyl)-1,4,5,6-tetrahydrocyclopenta[c]pyrazol-3-yl]-(1,4-diazabicyclo[3.2.2]nonan-4-yl)methanone] is 5-fold lower in EC50: 1.5 nM for the first, 0.3 nM for the second. The second is the more potent here.

`O=C(c1nn(-c2ccc(OC(F)F)c(Cl)c2)c2c1CCC2)N1CCN2CCC1CC2` [Compound 28, [1-[3-chloro-4-(difluoromethoxy)phenyl]-1,4,5,6-tetrahydrocyclopenta[c]pyrazol-3-yl]-(1,4-diazabicyclo[3.2.2]nonan-4-yl)methanone] was tested, and the EC50 was 1.3 nM.
